Where a name gives a salt, the structure may show the parent alone. Read-outs that look alike come from different tables or passages of the source.
Columns and labels:
Adenosine A1 = biological target: T1, Adenosine A1 (Homo sapiens, UniProt P30542); assay: Eurofins SafetyScreen panel; format: binding
T1 construct: Eurofins (contract screening, SafetyScreen panel) PP223

Neuropeptide Y Y1 = biological target: T2, Neuropeptide Y Y1 (Homo sapiens, UniProt P25929); assay: Eurofins SafetyScreen panel; format: binding
T2 construct: Eurofins (contract screening, SafetyScreen panel) PP223

hD2L = hD2L (Homo sapiens, UniProt P14416); settings: D2R
Protocol: For membrane preparation, cells after reaching 90% confluence, were washed with phosphate-buffered saline (PBS), and pelleted by centrifugation (200 × g) in PBS containing 0.1 mM EDTA and 1 mM dithiothreitol.
The total reaction volume was 200 μL. The incubation process was terminated by filtration through UniFilter-96 (PerkinElmer) plates with the FilterMate Universal Harvester (PerkinElmer, #C961962), and radioactivity retained on the filters was quantified on a MicroBeta counter for radiometric detection (PerkinElmer). […] To evaluate the level of nonspecific signal 10 μM of 5-HT for 5-HT1AR and 5-HT7R, 20 μM of mianserin for 5-HT2AR, 10 μM of methiothepine for 5-HT6R and 10 μM of haloperidol for D2LR were used. […] The acquired results were presented as the mean of at least two independent experiments.

Dopamine D1 = biological target: T3, Dopamine D1 (Homo sapiens, UniProt P21728); assay: Eurofins SafetyScreen panel; format: binding
T3 construct: purchased Eurofins (Panlabs) SafetyScreen87 Panel

Serotonin 5-HT2B = biological target: T4, Serotonin 5-HT2B (Homo sapiens, UniProt P41595); assay: Eurofins SafetyScreen panel; format: binding
T4 construct: Eurofins (contract assay)

[1] = biological target: T5, Protein Tyr Kinase, Insulin receptor (Homo sapiens, UniProt P06213); assay: Eurofins SafetyScreen panel; format: biochemical
T5 construct: Eurofins (contract screening, SafetyScreen panel) PP223

Adrenergic α2B = biological target: T6, Adrenergic α2B (Homo sapiens, UniProt P18089); assay: Eurofins SafetyScreen panel; format: binding
T6 construct: Eurofins (contract screening, SafetyScreen panel) PP223
T6 sequence (P18089 1-450): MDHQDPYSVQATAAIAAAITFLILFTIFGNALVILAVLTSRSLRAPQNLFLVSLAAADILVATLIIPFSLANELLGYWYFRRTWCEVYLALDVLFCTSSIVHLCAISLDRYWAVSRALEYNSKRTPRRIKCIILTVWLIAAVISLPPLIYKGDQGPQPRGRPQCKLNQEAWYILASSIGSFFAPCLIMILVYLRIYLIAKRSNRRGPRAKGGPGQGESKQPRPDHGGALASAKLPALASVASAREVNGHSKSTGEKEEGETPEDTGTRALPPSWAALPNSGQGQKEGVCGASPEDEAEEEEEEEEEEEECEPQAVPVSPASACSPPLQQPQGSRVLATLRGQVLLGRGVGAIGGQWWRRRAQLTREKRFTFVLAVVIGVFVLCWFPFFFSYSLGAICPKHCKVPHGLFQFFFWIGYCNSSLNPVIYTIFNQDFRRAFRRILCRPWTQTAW

[2] = read-out: %inh, 10 μM, additional batch

T4 sequence (P41595 whole entry): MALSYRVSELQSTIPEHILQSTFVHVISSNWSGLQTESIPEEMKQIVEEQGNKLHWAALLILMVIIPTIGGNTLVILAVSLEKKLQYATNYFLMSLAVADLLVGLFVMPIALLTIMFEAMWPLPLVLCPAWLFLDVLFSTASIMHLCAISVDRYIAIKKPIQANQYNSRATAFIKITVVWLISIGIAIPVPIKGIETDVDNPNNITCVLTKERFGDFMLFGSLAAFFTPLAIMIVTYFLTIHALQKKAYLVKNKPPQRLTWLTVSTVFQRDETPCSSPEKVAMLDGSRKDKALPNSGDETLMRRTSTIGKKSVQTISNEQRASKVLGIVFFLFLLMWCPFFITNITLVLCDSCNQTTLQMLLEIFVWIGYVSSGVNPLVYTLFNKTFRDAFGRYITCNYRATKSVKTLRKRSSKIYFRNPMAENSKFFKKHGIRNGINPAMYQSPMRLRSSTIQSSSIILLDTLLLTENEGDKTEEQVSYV
T1 sequence (P30542 whole entry): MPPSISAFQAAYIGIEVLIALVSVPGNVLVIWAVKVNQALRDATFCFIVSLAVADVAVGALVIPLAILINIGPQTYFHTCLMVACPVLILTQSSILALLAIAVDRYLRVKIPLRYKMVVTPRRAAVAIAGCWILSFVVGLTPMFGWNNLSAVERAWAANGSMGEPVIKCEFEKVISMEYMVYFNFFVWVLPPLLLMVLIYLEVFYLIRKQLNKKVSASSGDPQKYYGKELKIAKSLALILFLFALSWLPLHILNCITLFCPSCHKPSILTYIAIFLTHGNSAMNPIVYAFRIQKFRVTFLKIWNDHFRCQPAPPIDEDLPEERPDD
T3 sequence (P21728 whole entry): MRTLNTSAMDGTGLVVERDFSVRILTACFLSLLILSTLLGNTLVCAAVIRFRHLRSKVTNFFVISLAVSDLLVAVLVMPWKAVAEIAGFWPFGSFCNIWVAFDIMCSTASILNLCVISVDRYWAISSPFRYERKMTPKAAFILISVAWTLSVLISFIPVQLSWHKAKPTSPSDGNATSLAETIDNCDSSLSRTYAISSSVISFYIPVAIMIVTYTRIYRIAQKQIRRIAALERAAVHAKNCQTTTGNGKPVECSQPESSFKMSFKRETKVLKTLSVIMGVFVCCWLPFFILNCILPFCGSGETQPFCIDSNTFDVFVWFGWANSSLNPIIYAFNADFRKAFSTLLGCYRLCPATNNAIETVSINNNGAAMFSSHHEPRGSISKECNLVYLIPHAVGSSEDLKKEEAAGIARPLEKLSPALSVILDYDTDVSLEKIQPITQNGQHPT
hD2L, sequence (P14416 whole entry): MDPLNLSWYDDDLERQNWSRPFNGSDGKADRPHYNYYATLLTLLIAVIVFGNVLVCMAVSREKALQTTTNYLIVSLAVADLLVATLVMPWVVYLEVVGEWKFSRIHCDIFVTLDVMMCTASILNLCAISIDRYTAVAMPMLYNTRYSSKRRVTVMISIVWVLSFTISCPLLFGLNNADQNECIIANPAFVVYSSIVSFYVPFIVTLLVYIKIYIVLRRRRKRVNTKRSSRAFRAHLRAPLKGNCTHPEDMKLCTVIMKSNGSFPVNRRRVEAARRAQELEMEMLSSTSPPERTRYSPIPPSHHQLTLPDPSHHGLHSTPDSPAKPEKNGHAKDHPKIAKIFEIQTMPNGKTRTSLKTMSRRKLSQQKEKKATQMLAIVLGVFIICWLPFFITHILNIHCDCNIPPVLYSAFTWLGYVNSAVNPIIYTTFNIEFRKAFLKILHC
T2 sequence (P25929 whole entry): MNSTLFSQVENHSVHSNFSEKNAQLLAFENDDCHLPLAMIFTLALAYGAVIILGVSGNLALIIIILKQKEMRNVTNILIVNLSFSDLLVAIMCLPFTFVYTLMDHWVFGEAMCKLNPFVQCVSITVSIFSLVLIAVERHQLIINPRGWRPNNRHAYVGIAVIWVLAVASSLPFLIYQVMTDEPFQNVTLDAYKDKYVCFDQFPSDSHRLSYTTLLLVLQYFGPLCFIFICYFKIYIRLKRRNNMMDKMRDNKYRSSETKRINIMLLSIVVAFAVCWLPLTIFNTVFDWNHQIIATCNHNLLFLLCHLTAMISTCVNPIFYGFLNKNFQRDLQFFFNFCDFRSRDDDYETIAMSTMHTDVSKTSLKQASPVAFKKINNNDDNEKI
T5 sequence (P06213 28-1382): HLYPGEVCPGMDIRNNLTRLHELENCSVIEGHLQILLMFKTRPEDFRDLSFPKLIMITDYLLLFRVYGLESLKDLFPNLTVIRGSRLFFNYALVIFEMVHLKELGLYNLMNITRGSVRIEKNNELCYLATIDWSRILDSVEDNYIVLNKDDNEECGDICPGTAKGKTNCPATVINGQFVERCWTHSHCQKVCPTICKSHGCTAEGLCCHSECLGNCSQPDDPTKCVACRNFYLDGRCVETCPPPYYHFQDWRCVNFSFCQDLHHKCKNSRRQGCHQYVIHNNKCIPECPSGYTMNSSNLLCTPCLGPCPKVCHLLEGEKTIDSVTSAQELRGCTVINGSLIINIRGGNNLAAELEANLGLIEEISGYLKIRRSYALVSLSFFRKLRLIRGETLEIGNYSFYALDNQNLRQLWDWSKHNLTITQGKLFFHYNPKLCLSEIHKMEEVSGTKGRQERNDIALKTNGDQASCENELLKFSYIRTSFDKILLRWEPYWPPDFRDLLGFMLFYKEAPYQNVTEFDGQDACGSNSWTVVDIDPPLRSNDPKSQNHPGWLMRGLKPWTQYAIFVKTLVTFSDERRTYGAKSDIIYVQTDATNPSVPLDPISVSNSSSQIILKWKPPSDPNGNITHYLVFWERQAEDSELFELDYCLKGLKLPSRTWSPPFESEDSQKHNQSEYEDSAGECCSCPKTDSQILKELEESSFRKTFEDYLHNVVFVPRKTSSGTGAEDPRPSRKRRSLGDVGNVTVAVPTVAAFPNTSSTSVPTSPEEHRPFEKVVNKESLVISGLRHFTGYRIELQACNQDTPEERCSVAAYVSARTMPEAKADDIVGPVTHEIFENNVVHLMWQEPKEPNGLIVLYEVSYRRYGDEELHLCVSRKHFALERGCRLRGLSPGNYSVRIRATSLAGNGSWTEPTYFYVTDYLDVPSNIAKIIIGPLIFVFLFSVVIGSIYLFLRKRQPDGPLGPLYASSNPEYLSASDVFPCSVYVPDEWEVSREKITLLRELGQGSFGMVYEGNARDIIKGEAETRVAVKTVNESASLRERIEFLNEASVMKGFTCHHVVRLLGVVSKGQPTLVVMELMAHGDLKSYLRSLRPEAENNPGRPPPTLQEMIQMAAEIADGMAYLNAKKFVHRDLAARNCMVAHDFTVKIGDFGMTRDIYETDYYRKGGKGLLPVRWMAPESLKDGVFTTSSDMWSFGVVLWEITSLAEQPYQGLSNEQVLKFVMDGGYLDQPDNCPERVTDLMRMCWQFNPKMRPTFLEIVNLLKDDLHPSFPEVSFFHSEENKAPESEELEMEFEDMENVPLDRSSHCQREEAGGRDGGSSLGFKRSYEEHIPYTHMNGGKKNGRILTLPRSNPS

Q: For `O=S(=O)(c1cccc(F)c1)n1ccc2c(N3CCNCC3)nc3ccccc3c21` [FPPQ, 1-[(3-Fluorophenyl)sulfonyl]-4-(piperazin-1-yl)-1H-pyrrolo[3,2-c]quinoline dihydrochloride], which inhibition at 10 µM (Adenosine A1) is on record?
A: Its inhibition at 10 µM is 29%.

Q: And the inhibition at 10 µM (Neuropeptide Y Y1)?
A: The inhibition at 10 µM was 37%.

Q: And the Ki (hD2L)?
A: Its Ki is 4.39 µM.

Q: What about the inhibition at 10 µM (Dopamine D1) of the same compound?
A: The inhibition at 10 µM was 27%.

Q: And the IC50 (Serotonin 5-HT2B)?
A: The IC50 was 0.26 µM.

Q: And the Ki (Serotonin 5-HT2B)?
A: The Ki was 0.17 µM.

Q: What about the inhibition at 0.01 µM (Serotonin 5-HT2B; read-out: %inh, 10 nM) of the same compound?
A: The inhibition at 0.01 µM was 13%.

Q: And the inhibition at 0.1 µM (Serotonin 5-HT2B; read-out: %inh, 0.1 μM)?
A: The inhibition at 0.1 µM was 31%.

Q: What about the inhibition at 1 µM (Serotonin 5-HT2B; read-out: %inh, 1 μM) of the same compound?
A: The inhibition at 1 µM was 71%.

Q: And the inhibition at 10 µM (Serotonin 5-HT2B; read-out: %inh, 10 μM)?
A: Its inhibition at 10 µM is 96%.

Q: What about the inhibition at 10 µM (Serotonin 5-HT2B; [2]) of the same compound?
A: The inhibition at 10 µM was 97%.

Q: And the inhibition at 10 µM [1]?
A: Its inhibition at 10 µM is -6%.

Q: What about the IC50 (Adrenergic α2B) of the same compound?
A: The IC50 was 10.1 µM.

Q: And the Ki (Adrenergic α2B)?
A: Its Ki is 4.61 µM.

Q: And the inhibition at 0.1 µM (Adrenergic α2B; read-out: %inh, 0.1 μM)?
A: Its inhibition at 0.1 µM is 1%.

Q: What about the inhibition at 1 µM (Adrenergic α2B; read-out: %inh, 1 μM) of the same compound?
A: Its inhibition at 1 µM is -4%.

Q: What about the inhibition at 10 µM (Adrenergic α2B; read-out: %inh, 10 μM) of the same compound?
A: The inhibition at 10 µM was 43%.

Q: What about the inhibition at 10 µM (Adrenergic α2B; [2]) of the same compound?
A: Its inhibition at 10 µM is 53%.

Q: And the inhibition at 100 µM (Adrenergic α2B; read-out: %inh, 100 μM)?
A: The inhibition at 100 µM was 108%.

Reference: article PMC8474115 (Journal of Medicinal Chemistry, 2021)
